{
  "source": "PubChem BioAssay AID1259411",
  "about": "(Chemical Carcinogenesis Research Information System (CCRIS), 2018)",
  "system": "rodent carcinogenicity bioassays, tumor incidence",
  "test": "CCRIS carcinogenicity studies",
  "how_it_was_run": "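NCI-built, expert-reviewed records of carcinogenicity and related test outcomes (mutagenicity, tumor promotion/inhibition) compiled from published and report sources, historical span 1985-2011, not updated.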",
  "note": "Calls of active or inactive are those of the source. No rule for the calls is given here.",
  "data": [
    {"molecule": "CC(=O)CN(CC(C)=O)N=O", "values": [
      {"measurement": "carcinogen call", "setting": "Species: GUINEA PIG, Strain/Sex: STRAIN-13/MALE, Route: SUBCUTANEOUS, Dose: 70 MG/KG/WK FOR 2 WK FOLLOWED BY 1 WK NO TREATMENT THEN 20 MG/KG/WK FOR 2 WK, Tumor Site: Type of Lesion: LIVER: CHOLANGIOMA, CHOLANGIOCARCINOMA", "value": "active; positive"},
      {"measurement": "carcinogen call", "setting": "Species: HAMSTER, Strain/Sex: SYRIAN/FEMALE, Route: SUBCUTANEOUS, Dose: 2.5, 5, 10 MG/KG, Dose: 2.5, 5, 10 MG/KG, Tumor Site: Type of Lesion: PANCREAS: DUCTAL ADENOMA, INTRADUCTAL CARCINOMA, ADENOCARCINOMA, LUNG: ADENOMA, ADENOCARCINOMA, SQUAMOUS CELL CARCINOMA;, Tumor Site: Type of Lesion: PANCREAS: DUCTAL ADENOMA, INTRADUCTAL CARCINOMA, ADENOCARCINOMA, LUNG: ADENOMA, ADENOCARCINOMA, SQUAMOUS CELL CARCINOMA", "value": "active; positive"},
      {"measurement": "carcinogen call", "setting": "Species: HAMSTER, Strain/Sex: SYRIAN/MALE,FEMALE, Route: ORAL, Dose: 0.35, 0.7, 1.4% IN DRINKING WATER, Dose: 0.35, 0.7, 1.4% IN DRINKING WATER, Tumor Site: Type of Lesion: LIVER: CHOLANGIOMA, INTRADUCTAL CARCINOMA, CHOLANGIOCARCINOMA, GALL BLADDER: POLYP, COMMON BILE DUCT: POLYP, COMMON DUCT, Tumor Site: Type of Lesion: LIVER: CHOLANGIOMA, INTRADUCTAL CARCINOMA, CHOLANGIOCARCINOMA, GALL BLADDER: POLYP, COMMON BILE DUCT: POLYP, COMMON DUCT", "value": "active; positive"},
      {"measurement": "carcinogen call", "setting": "Species: HAMSTER, Strain/Sex: SYRIAN/MALE, Route: SUBCUTANEOUS, Dose: 2.5, 5, 10 MG/KG, Dose: 2.5, 5, 10 MG/KG, Tumor Site: Type of Lesion: PANCREAS: DUCTAL ADENOMA, INTRADUCTAL CARCINOMA, ADENOCARCINOMA, LUNG: ADENOMA, ADENOCARCINOMA, GALL BLADDER: PAPILLARY, Tumor Site: Type of Lesion: PANCREAS: DUCTAL ADENOMA, INTRADUCTAL CARCINOMA, ADENOCARCINOMA, LUNG: ADENOMA, ADENOCARCINOMA, GALL BLADDER: PAPILLARY", "value": "active; positive"},
      {"measurement": "carcinogen call", "setting": "Species: MOUSE, Strain/Sex: ICR/FEMALE, Route: SUBCUTANEOUS, Dose: 0, 10, 20, 40 MG/KG BW IN 1% GELATIN SOLUTION ON DAYS 1, 8, 15 AND 22 OF AGE (STUDY DURATION: 1 YR), Dose: 0, 10, 20, 40 MG/KG BW IN 1% GELATIN SOLUTION ON DAYS 1, 8, 15 AND 22 OF AGE (STUDY DURATION: 1 YR), Tumor Site: Type of Lesion: NASAL CAVITY: TUMOR, LUNG: TUMOR, LIVER: TUMOR, Tumor Site: Type of Lesion: NASAL CAVITY: TUMOR, LUNG: TUMOR, LIVER: TUMOR", "value": "active; positive"},
      {"measurement": "carcinogen call", "setting": "Species: MOUSE, Strain/Sex: ICR/MALE, Route: SUBCUTANEOUS, Dose: 0, 10, 20, 40 MG/KG BW IN 1% GELATIN SOLUTION ON DAYS 1, 8, 15 AND 22 OF AGE (STUDY DURATION: 1 YR), Dose: 0, 10, 20, 40 MG/KG BW IN 1% GELATIN SOLUTION ON DAYS 1, 8, 15 AND 22 OF AGE (STUDY DURATION: 1 YR), Tumor Site: Type of Lesion: NASAL CAVITY: TUMOR, LUNG: TUMOR, LIVER: TUMOR, Tumor Site: Type of Lesion: NASAL CAVITY: TUMOR, LUNG: TUMOR, LIVER: TUMOR", "value": "active; positive"},
      {"measurement": "carcinogen call", "setting": "Species: RAT, Strain/Sex: CD-1/FEMALE, Route: SUBCUTANEOUS, Dose: 0, 5.35, 10.7, 21.4 MG/KG 1/WK FOR LIFE (STUDY DURATION: LIFE), Dose: 0, 5.35, 10.7, 21.4 MG/KG 1/WK FOR LIFE (STUDY DURATION: LIFE), Tumor Site: Type of Lesion: NASAL CAVITY: TUMOR", "value": "active; positive"},
      {"measurement": "carcinogen call", "setting": "Species: RAT, Strain/Sex: CD-1/MALE, Route: SUBCUTANEOUS, Dose: 0, 6.15, 12.3, 24.6 MG/KG 1/WK FOR LIFE (STUDY DURATION: LIFE), Dose: 0, 6.15, 12.3, 24.6 MG/KG 1/WK FOR LIFE (STUDY DURATION: LIFE), Tumor Site: Type of Lesion: NASAL CAVITY: TUMOR", "value": "active; positive"},
      {"measurement": "carcinogen call", "setting": "Species: RAT, Strain/Sex: F344/FEMALE, Route: INTRAVESICULAR, Dose: 0, 0.8 MG IN 0.2 ML ETHANOL: DEIONIZED WATER (1:3) 2/WK FOR 30 WK (TOTAL DOSE 0.3 MMOL) (STUDY DURATION: LIFESPAN), Tumor Site: Type of Lesion: BLADDER: TRANSITIONAL CELL CARCINOMA, TRANSITIONAL CELL PAPILLOMA, LUNG: TUMOR, KIDNEY: MESENCHYMAL NEOPLASM, LIVER: TUM, Tumor Site: Type of Lesion: BLADDER: TRANSITIONAL CELL CARCINOMA, TRANSITIONAL CELL PAPILLOMA, LUNG: TUMOR, KIDNEY: MESENCHYMAL NEOPLASM, LIVER: TUM", "value": "active; positive"},
      {"measurement": "carcinogen call", "setting": "Species: RAT, Strain/Sex: F344/FEMALE, Route: ORAL, Dose: 0, 55 MG/L DRINKING WATER 5 D/WK FOR 50 WK (TOTAL DOSE 275 MG) (STUDY DURATION: LIFESPAN), Tumor Site: Type of Lesion: LIVER: CARCINOMA, ANGIOSARCOMA, LUNG: TUMOR", "value": "active; positive"},
      {"measurement": "carcinogen call", "setting": "Species: RAT, Strain/Sex: F344/FEMALE, Route: SUBCUTANEOUS, Dose: 0, 10 MG/KG/BW 2/WK FOR A TOTAL OF 11 DOSES BEGINNING AT 2 D OF AGE (STUDY DURATION: 26 WK), Tumor Site: Type of Lesion: LIVER: HEPATOCELLULAR CARCINOMA, KIDNEY: NEPHROBLASTOMA", "value": "active; positive"},
      {"measurement": "carcinogen call", "setting": "Species: RAT, Strain/Sex: F344/MALE, Route: SUBCUTANEOUS, Dose: 0, 10 MG/KG/BW 2/WK FOR A TOTAL OF 11 DOSES BEGINNING AT 2 D OF AGE (STUDY DURATION: 26 WK), Tumor Site: Type of Lesion: LIVER: HEPATOCELLULAR CARCINOMA, KIDNEY: NEPHROBLASTOMA, TESTIS: GONADAL STROMAL TUMOR, Tumor Site: Type of Lesion: LIVER: HEPATOCELLULAR CARCINOMA, KIDNEY: NEPHROBLASTOMA, TESTIS: GONADAL STROMAL TUMOR", "value": "active; positive"},
      {"measurement": "carcinogen call", "setting": "Species: RAT, Strain/Sex: MRC/MALE,FEMALE, Route: SUBCUTANEOUS, Dose: 2.5, 5, 10 MG/KG, Dose: 2.5, 5, 10 MG/KG, Tumor Site: Type of Lesion: THYROID GLAND: FOLLICULAR ADENOMA, CARCINOMA", "value": "active; positive"},
      {"measurement": "carcinogen call", "setting": "Species: RAT, Strain/Sex: SPRAGUE-DAWLEY/FEMALE, Route: SUBCUTANEOUS, Dose: 0, 5.35, 10.7, 21.4 MG/KG BW IN 0.9% SALINE 1/WK FOR DURATION OF STUDY (STUDY DURATION: 96 WK), Dose: 0, 5.35, 10.7, 21.4 MG/KG BW IN 0.9% SALINE 1/WK FOR DURATION OF STUDY (STUDY DURATION: 96 WK), Tumor Site: Type of Lesion: KIDNEY (RENAL PELVIS): TUMOR, URETER: TUMOR, URINARY BLADDER: TUMOR, Tumor Site: Type of Lesion: KIDNEY (RENAL PELVIS): TUMOR, URETER: TUMOR, URINARY BLADDER: TUMOR", "value": "active; positive"},
      {"measurement": "carcinogen call", "setting": "Species: RAT, Strain/Sex: SPRAGUE-DAWLEY/MALE, Route: SUBCUTANEOUS, Dose: 0, 6.15, 12.3, 24.6 MG/KG BW IN 0.9% SALINE 1/WK FOR DURATION OF STUDY (STUDY DURATION: 96 WK), Dose: 0, 6.15, 12.3, 24.6 MG/KG BW IN 0.9% SALINE 1/WK FOR DURATION OF STUDY (STUDY DURATION: 96 WK), Tumor Site: Type of Lesion: KIDNEY (RENAL PELVIS): TUMOR, URINARY BLADDER: TUMOR", "value": "active; positive"}
    ]},
    {"molecule": "Nc1cc(Cl)cc(C(=O)O)c1Cl", "values": [
      {"measurement": "carcinogen call", "setting": "Species: MOUSE, Strain/Sex: B6C3F1/FEMALE, Route: ORAL, Dose: 0, 10000, 20000 PPM IN DIET FOR 80 WK (STUDY DURATION: 91-92 WK), Dose: 0, 10000, 20000 PPM IN DIET FOR 80 WK (STUDY DURATION: 91-92 WK), Tumor Site: Type of Lesion: LIVER: HEPATOCELLULAR CARCINOMA", "value": "active; positive"},
      {"measurement": "carcinogen call", "setting": "Species: MOUSE, Strain/Sex: B6C3F1/MALE, Route: ORAL, Dose: 0, 10000, 20000 PPM IN DIET FOR 80 WK (STUDY DURATION: 91-92 WK), Dose: 0, 10000, 20000 PPM IN DIET FOR 80 WK (STUDY DURATION: 91-92 WK), Tumor Site: Type of Lesion: LIVER: HEPATOCELLULAR CARCINOMA", "value": "equivocal"},
      {"measurement": "carcinogen call", "setting": "Species: RAT, Strain/Sex: OSBORNE-MENDEL/FEMALE, Route: ORAL, Dose: 0, 10000, 20000 PPM IN DIET FOR 80 WK (STUDY DURATION: 112-113 WK ), Dose: 0, 10000, 20000 PPM IN DIET FOR 80 WK (STUDY DURATION: 112-113 WK )", "value": "inactive; negative"},
      {"measurement": "carcinogen call", "setting": "Species: RAT, Strain/Sex: OSBORNE-MENDEL/MALE, Route: ORAL, Dose: 0, 10000, 20000 PPM IN DIET FOR 80 WK (STUDY DURATION: 112-113 WK), Dose: 0, 10000, 20000 PPM IN DIET FOR 80 WK (STUDY DURATION: 112-113 WK)", "value": "inactive; negative"}
    ]},
    {"molecule": "Nc1ccc(N(CCO)CCO)cc1", "values": [
      {"measurement": "carcinogen call", "setting": "Species: RAT, Strain/Sex: F344/FEMALE, Route: ORAL, Dose: 0, 300, 1000, 3000 PPM IN DIET FOR 104 WK (STUDY DURATION: 104 WK), Dose: 0, 300, 1000, 3000 PPM IN DIET FOR 104 WK (STUDY DURATION: 104 WK)", "value": "inactive; negative"},
      {"measurement": "carcinogen call", "setting": "Species: RAT, Strain/Sex: F344/MALE, Route: ORAL, Dose: 0, 300, 1000, 3000 PPM IN DIET FOR 104 WK (STUDY DURATION: 104 WK), Dose: 0, 300, 1000, 3000 PPM IN DIET FOR 104 WK (STUDY DURATION: 104 WK)", "value": "inactive; negative"}
    ]}
  ]
}
